Measured values reported in US20210177814A1, “USE OF GUANABENZ OR DERIVATES THEREOF FOR THE TREATMENT OF TYPE I IFN-DEPENDENT PATHOLOGIES” (INSERM (Institut National de la Santé et de la Recherche …, priority 2018, published 2021).
“Also recorded” adds a separate entry of the source.

What was measured:
TLR3 = target: T1, TLR3 (Mus musculus, UniProt Q99MB1); assay: Cytokine production by sorted Flt3L-DC cDC1 activated with poly I:C LMW; assay type: cell-based; conditions: sorted cDC1, 10 μg/mL poly I:C LMW 6 h, GBZ 50 μM
T1 construct: endogenous in cells; host or cells: sorted cDC1 from Flt3L-differentiated mouse bone marrow cultures
T1 sequence (Q99MB1 26-905): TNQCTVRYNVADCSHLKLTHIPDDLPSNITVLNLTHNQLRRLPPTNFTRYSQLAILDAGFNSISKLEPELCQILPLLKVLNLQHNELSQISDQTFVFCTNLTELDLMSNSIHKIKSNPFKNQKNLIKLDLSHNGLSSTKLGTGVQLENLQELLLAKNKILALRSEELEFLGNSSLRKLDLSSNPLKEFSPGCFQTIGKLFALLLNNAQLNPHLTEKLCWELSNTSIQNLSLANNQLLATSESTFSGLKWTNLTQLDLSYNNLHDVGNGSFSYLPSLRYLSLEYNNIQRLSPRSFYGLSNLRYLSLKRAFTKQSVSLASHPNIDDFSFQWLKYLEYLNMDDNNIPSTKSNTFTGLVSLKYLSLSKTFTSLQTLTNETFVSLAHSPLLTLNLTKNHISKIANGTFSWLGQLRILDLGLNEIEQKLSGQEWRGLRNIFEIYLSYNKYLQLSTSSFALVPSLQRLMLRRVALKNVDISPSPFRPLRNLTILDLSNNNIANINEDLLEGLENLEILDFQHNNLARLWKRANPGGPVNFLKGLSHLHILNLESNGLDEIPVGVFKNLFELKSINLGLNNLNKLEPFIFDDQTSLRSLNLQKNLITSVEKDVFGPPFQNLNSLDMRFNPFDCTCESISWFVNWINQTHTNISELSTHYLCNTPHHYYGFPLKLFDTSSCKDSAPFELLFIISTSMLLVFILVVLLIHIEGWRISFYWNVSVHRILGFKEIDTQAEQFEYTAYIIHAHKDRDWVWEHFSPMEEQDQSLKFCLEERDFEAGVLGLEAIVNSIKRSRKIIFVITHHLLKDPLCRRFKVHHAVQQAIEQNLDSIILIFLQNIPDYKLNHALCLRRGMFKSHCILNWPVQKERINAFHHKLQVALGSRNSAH
Protocol: FIG. 1: Guanabenz inhibits TLR3 and TLR9 activation in mouse Flt3-L DCs and human blood pDCs. A) Sorted bone marrow derived Flt3L-DCs were activated for 6 h with 10 μg/mL poly I:C LMW (TLR3 in DC1) or 1 μM ODN 1585 (TLR9 in pDCs). GBZ was added at 50 μM and inhibited IFN-β and Interleukin-6 (IL-6) production in activated cells. B) hTLR4, hTLR3, hTLR9 and hTLR7 expressed in the reporter HEK-Blue™ cells are inhibited by GBZ. TLR-expressing HEK-Blue™ cells were respectively activated with 100 ng/mL LPS, 10 μg/mL poly I:C LMW, 2.5 μM ODN 2006 or 5 μg/mL imiquimod, respectively. GBZ was added at 50 μM. TLR activity was measured indirectly through SEAP activity as absorbance at 405 nm. […] Protein concentration of IFN-α and TNF-α secreted were measured at the indicated time points or at 16 h. […]
BM-derived DCs were differentiated in vitro from the bone marrow of 6-8 weeks old male mice, using either FLT3 ligand or GM-CSF. […] For sorted Flt3L-DCs, cells were gently harvested at day 7 with cold PBS 2% FCS, centrifuged 1200 rpm 5 min at 4° C., counted and stained with for 30 mins at 4° C. […]
Mouse IFN-β quantification in culture supernatant was performed using the Mouse Interferon Beta ELISA kit (PBL InterferonSource); mouse IL-6, TNFα, IL-10, human TNFα and human IFNα were quantified using ELISA kit (eBioscience) respectively, according to manufacturer instructions. […]

[1] = mouse, cited from earlier work

In the case of `NC(N)=N/N=C/c1c(Cl)cccc1Cl` [GBZ, 2-(2,6-dichlorobenzylidene)-hydrazinecarboximidamide], the IFN-β production (TLR3) is given as “nearly abrogated; also recorded: inhibited”, the IL-6 production (TLR3) is given as “nearly abrogated; also recorded: inhibited” and the spinal cord accumulation ([1]; several hours after single i.p. bolus 2 mg/kg) is given as “approximately 7 μM”. The plasma half-life ([1]; single i.p. bolus 2 mg/kg) was 1.8 h.
